Reference: ChEMBL document CHEMBL1201862, “PubChem BioAssay data set” (2004)
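Results reflect a 48-hour exposure of cells in 96-well plates to compound at five concentrations. At the GI50, growth is halved.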 Activity calls are given as the source filed them. No stated cut-off is given here; in the data, active = GI50 up to about 1.1 µM and inactive = higher.

Tests used:
Experiment in all cases: inhibition of tumour cell growth, NCI panel, 48 h
OVCAR-4 = system: OVCAR-4
SW-620 = system: SW-620
SF-539 = system: SF-539
KM12 = system: KM12
IGROV-1 = system: IGROV-1
OVCAR-5 = system: OVCAR-5
RXF 393 = system: RXF 393
OVCAR-3 = system: OVCAR-3
UACC-257 = system: UACC-257
EKVX = system: EKVX
RPMI-8226 = system: RPMI-8226
SF-268 = system: SF-268
HCT-116 = system: HCT-116
SK-OV-3 = system: SK-OV-3
CAKI-1 = system: CAKI-1
SNB-19 = system: SNB-19
SK-MEL-2 = system: SK-MEL-2
UACC-62 = system: UACC-62
SK-MEL-5 = system: SK-MEL-5
NCI-H460 = system: NCI-H460

Measured: GI50

COc1cc(/C=C2\N=C(c3ccccc3)N(c3ccc(S(=O)(=O)Nc4nccs4)cc3)C2=O)ccc1O
inactive: OVCAR-4 > 100 µM | SW-620 77.6 µM | SF-539 79.4 µM | KM12 > 100 µM | IGROV-1 > 100 µM | OVCAR-5 > 100 µM | RXF 393 62.2 µM | OVCAR-3 > 100 µM | UACC-257 > 100 µM | EKVX 63.8 µM | RPMI-8226 45 µM | SF-268 51.9 µM | HCT-116 70.3 µM | SK-OV-3 > 100 µM | CAKI-1 > 100 µM | SNB-19 > 100 µM | SK-MEL-2 > 100 µM | UACC-62 43.9 µM | SK-MEL-5 75.9 µM | NCI-H460 > 100 µM

COC(=O)/C=C1\CCC(C)O1 (stereo not given)
inactive: OVCAR-4 > 100 µM | SW-620 > 100 µM | SF-539 > 100 µM | KM12 > 100 µM | IGROV-1 > 100 µM | OVCAR-5 > 100 µM | RXF 393 > 100 µM | OVCAR-3 > 100 µM | UACC-257 > 100 µM | EKVX > 100 µM | RPMI-8226 > 100 µM | SF-268 > 100 µM | HCT-116 > 100 µM | SK-OV-3 > 100 µM | CAKI-1 > 100 µM | SNB-19 > 100 µM | SK-MEL-2 > 100 µM | UACC-62 > 100 µM | SK-MEL-5 > 100 µM | NCI-H460 > 100 µM

COc1cc(/C=N/N=C(\N)NO)cc(OC)c1OC
inactive: OVCAR-4 40.8 µM | SW-620 50 µM | SF-539 30.5 µM | KM12 18.7 µM | IGROV-1 42.7 µM | OVCAR-5 49.5 µM | RXF 393 52.6 µM | OVCAR-3 21.9 µM | UACC-257 43.1 µM | EKVX 19.6 µM | RPMI-8226 37.2 µM | SF-268 31.1 µM | HCT-116 32.1 µM | SK-OV-3 67.8 µM | CAKI-1 72.4 µM | SNB-19 > 100 µM | SK-MEL-2 54.3 µM | UACC-62 13.5 µM | SK-MEL-5 20.6 µM | NCI-H460 28.2 µM

CC(=O)OC1COC(n2c(=S)n(-c3ccccc3)c(=O)c3cc(Br)ccc32)C(OC(C)=O)C1OC(C)=O (stereo not given)
inactive: OVCAR-4 7.5 µM | SW-620 > 100 µM | SF-539 22.4 µM | KM12 > 100 µM | IGROV-1 45.1 µM | OVCAR-5 > 100 µM | RXF 393 22.2 µM | OVCAR-3 73.3 µM | UACC-257 55.2 µM | EKVX > 100 µM | RPMI-8226 33.9 µM | SF-268 29.1 µM | HCT-116 23.9 µM | SK-OV-3 32.8 µM | CAKI-1 42 µM | SNB-19 25.2 µM | SK-MEL-2 45.1 µM | UACC-62 37.3 µM | SK-MEL-5 54.8 µM | NCI-H460 65.2 µM

CCOC(=O)NN1C(=O)C(=P(c2ccccc2)(c2ccccc2)c2ccccc2)C(C(=O)OC)=C1C
inactive: OVCAR-4 > 100 µM | SW-620 > 100 µM | SF-539 > 100 µM | KM12 > 100 µM | IGROV-1 > 100 µM | OVCAR-5 > 100 µM | RXF 393 > 100 µM | OVCAR-3 > 100 µM | UACC-257 > 100 µM | EKVX > 100 µM | RPMI-8226 > 100 µM | SF-268 > 100 µM | HCT-116 > 100 µM | SK-OV-3 > 100 µM | CAKI-1 > 100 µM | SNB-19 > 100 µM | SK-MEL-2 > 100 µM | UACC-62 > 100 µM | SK-MEL-5 > 100 µM | NCI-H460 > 100 µM

O=c1c2c(F)c(F)c(F)c(F)c2sc2nccn12
inactive: OVCAR-4 19.5 µM | SW-620 17.3 µM | SF-539 17.5 µM | KM12 17.1 µM | IGROV-1 17.4 µM | OVCAR-5 20.4 µM | RXF 393 17.7 µM | OVCAR-3 14.4 µM | UACC-257 13 µM | EKVX 24.7 µM | RPMI-8226 16.7 µM | SF-268 18 µM | HCT-116 13.9 µM | SK-OV-3 18.9 µM | CAKI-1 19 µM | SNB-19 19.8 µM | SK-MEL-2 19.1 µM | UACC-62 14.7 µM | SK-MEL-5 18.5 µM | NCI-H460 11.2 µM

CCCCN(CCCC)C(=O)C(=O)CC(=O)/C=C/c1ccccc1
inactive: OVCAR-4 > 100 µM | SW-620 > 100 µM | SF-539 > 100 µM | KM12 > 100 µM | IGROV-1 > 100 µM | OVCAR-5 > 100 µM | RXF 393 > 100 µM | OVCAR-3 > 100 µM | UACC-257 > 100 µM | EKVX > 100 µM | RPMI-8226 > 100 µM | SF-268 > 100 µM | HCT-116 > 100 µM | SK-OV-3 > 100 µM | CAKI-1 > 100 µM | SNB-19 > 100 µM | SK-MEL-2 > 100 µM | UACC-62 > 100 µM | SK-MEL-5 > 100 µM | NCI-H460 > 100 µM

O=C1C=CC(O)(C#CCO)C=C1
inactive: OVCAR-4 11.9 µM | SW-620 4.62 µM | SF-539 17 µM | KM12 17.5 µM | IGROV-1 13 µM | OVCAR-5 12.1 µM | RXF 393 4.02 µM | OVCAR-3 17 µM | UACC-257 14.6 µM | EKVX 18.4 µM | RPMI-8226 3.74 µM | SF-268 17.6 µM | HCT-116 15.8 µM | SK-OV-3 58.1 µM | CAKI-1 4.02 µM | SNB-19 22 µM | SK-MEL-2 17.4 µM | UACC-62 15.6 µM | SK-MEL-5 24.3 µM | NCI-H460 21.2 µM

C#C[C@]1(O)CC[C@H]2[C@@H]3CCC4=C/C(=N\OCCN5CCCCC5)CC[C@]4(C)[C@H]3CC[C@@]21C
inactive: OVCAR-4 13.6 µM | SW-620 4.33 µM | SF-539 4.11 µM | KM12 3.44 µM | IGROV-1 7.18 µM | OVCAR-5 13.5 µM | RXF 393 2.86 µM | OVCAR-3 5.15 µM | UACC-257 3.98 µM | EKVX 8.15 µM | RPMI-8226 2.43 µM | SF-268 6.44 µM | HCT-116 4.31 µM | SK-OV-3 16 µM | CAKI-1 6.21 µM | SNB-19 6.9 µM | SK-MEL-2 2.77 µM | UACC-62 3.32 µM | SK-MEL-5 2.23 µM | NCI-H460 6.78 µM

C=CCOC1=C(OC(C)=O)C(C2COC(C)(C)O2)OC1=O (stereo not given)
inactive: OVCAR-4 21.5 µM | SW-620 16.5 µM | SF-539 33.2 µM | KM12 20.7 µM | IGROV-1 31.6 µM | OVCAR-5 17.5 µM | RXF 393 21.2 µM | OVCAR-3 17.9 µM | UACC-257 18.2 µM | EKVX 20.1 µM | RPMI-8226 22.1 µM | SF-268 31.6 µM | HCT-116 17.6 µM | SK-OV-3 > 100 µM | CAKI-1 1.95 µM | SNB-19 > 100 µM | SK-MEL-2 35.6 µM | UACC-62 22.2 µM | SK-MEL-5 16.9 µM | NCI-H460 22 µM
